These results are taken from publication PMC8333425, “Discovery of a dual Ras and ARF6 inhibitor from a GPCR endocytosis screen” (Nature Communications, 2021).

One test concerns β-arrestin2. Briefly: Confocal microscopy of β-arrestin2-YFP trafficking with B2R. It counts as cell-based, human. The conditions noted are these: 50 μM; BK. Here is the method: One day before transfection, cells were seeded in 35-mm glass-bottom dishes (MatTek Corporation) at a density of 1 × 10^5 cells per dish. For the recordings of receptor internalization, HEK293 SL cells were transfected with 2 μg of AT1R-YFP. For the recordings of β-arrestin-2 recruitment to the receptor, HEK293SL cells were transfected with 50 ng of β-arrestin2-YFP and 250 ng of Flag-AT1R or HA-B2R. Forty-eight hours post-transfection, cells were serum starved, preincubated with DMSO (0.1% final concentration) or Rasarfin (50 μM) for 30 min at 37 °C. AT1R-expressing cells were stimulated with angiotensinII (AngII; 100 nM) and B2R-expressing cells were stimulated with bradykinin (BK; 1 μM) for 30 min (receptor-YFP) or 15 min (β-arrestin2-YFP). Cells were imaged with Zeiss LSM-510 and/or LSM-710 laser scanning confocal microscope. To detect YFP, […] and BP 505–550 nm emission filter. Images (2048 × 2048) were collected using a 63x oil immersion lens.

The target in test [1] is T1, K-Ras Y32A, Y40A, Y32A/Y40A (Homo sapiens, UniProt P01116, Y32A).
T1 construct: expressed in transfected cells; host or cells: HEK293SL
In words: Ras BRET sensor in cells overexpressing K-Ras mutants (Y32A, Y40A, Y32A/Y40A) and AT1R. It counts as cell-based. The note with it: Rasarfin 50 μM, K-Ras Y32A. From the text:
(§1) Because Tyr32 and Tyr40, located on the switch I domain of Ras, are critical for stabilizing Rasarfin binding through interactions with both the chlorine and isopropyl moiety (Fig. 7a, c), we reasoned that substituting them for Ala residues would negatively impact Rasarfin’s inhibitory action on Ras. […] Because we wanted to assess the inhibitory action of Rasarfin over different Ras subtypes, we mutated the two tyrosine residues to an alanine in K-Ras (Y32A, Y40A, and Y32A/Y40A mutants) within the same Rasarfin binding site found in H-Ras (Lys^5-Thr^74). This domain and residues are perfectly conserved among the Ras family members[44],[45]. WT K-Ras and K-Ras mutants were overexpressed along with AT1R in cells and AngII-mediated activation of Ras was assessed using the Ras BRET sensor (Supplementary Fig. 11a).
(§2) HEK293SL cells were seeded at a density of 7.5 × 10^5 cells per 100-mm dish and 24 h later, transiently transfected as such. For receptor internalization experiments, cells were transfected with 0.12 μg AT1R-RlucII, B2R-RlucII, or β2AR-RlucII and 0.48 μg of either rGFP-CAAX (to assess removal from the PM) or rGFP-FYVE (to assess accumulation in the endosomes). For β-arrestin recruitment assays, cells were transfected with 0.48 μg of receptor-YFP along with 0.12 μg of β-arrestin-RlucII. For β-arrestin/AP-2 binding experiments, cells were transfected with 1 μg Flag-AT1R, 1 μg β2-Adaptin-YFP, and 0.12 μg β-arrestin2-RlucII. For G protein activation, cells were transfected with 3 μg of sp-Flag-AT1R along with either 4.5 μg of the Gαq-polycistronic BRET sensor or 0.24 μg of the Gαi3-RlucII and 0.6 μg of GFP10-Gγ2 and Gβ1 sensors or 0.12 μg PKN-RBD-RlucII and 0.48 μg of rGFP-CAAX. For PKC activation, cells were transfected with 3 μg of sp-Flag-AT1R and 0.18 μg of the PKC sensor. For GTPase activation experiments, cells were transfected with 1 μg Flag-AT1R, 0.48 μg of rGFP-CAAX, and either 0.12 μg of GGA3-PBD-RlucII, PAK-CRIB-RlucII or Raf-RBD-RlucII. For biosensor validation experiments, cells were additionally transfected with 500 ng Flag-K-Ras-WT, Flag-K-Ras-G12V, Flag-K-Ras-SOS-CAAX, HA-ARF6-WT, HA-ARF6-T27N, Myc-Rac1-WT, Myc-Rac1-Q61L or Myc-Rac1-T17N. For PI3K/Akt activation experiments, cells were transfected with 0.48 μg of rGFP-CAAX and 0.12 μg of Akt (PH)-RlucII. After 18 h of transfection, the media was replaced and cells were divided for subsequent experiments. Cells were detached and seeded onto poly-L-ornithine-coated 96-well flat white bottom plates (BrandTech Scientific) at a density of 2.5 × 10^4 cells per well in media. The next day, cells were washed once with Tyrode’s buffer (140 mM NaCl, 2.7 mM KCl, 1 mM CaCl2, 12 mM NaHCO3, 5.6 mM D-glucose, 0.5 mM MgCl2, 0.37 mM NaH2PO4, 25 mM HEPES, pH 7.4) and left in Tyrode’s buffer. For kinetics of β-arrestin recruitment or β-arrestin binding to receptor and AP-2 experiments, cells were serum starved for 30 min, pretreated with 21 (50 µM) or Barbadin (100 µM) for 30 min, stimulated with 100 nM AngII or 1 µM BK and BRET signals were monitored at indicated times using a Victor X Light plate reader (PerkinElmer). Coelenterazine H (final concentration of 5 µM) was added 3–5 min prior to BRET measurements. Filter set was 460/80 nm and 535/30 nm for detecting the RlucII Renilla luciferase (donor) and YFP (acceptor) light emissions, respectively. The BRET ratio was determined by calculating the ratio of the light emitted by YFP over the light emitted by the RlucII. For G protein activation, cells were serum starved, pretreated with compounds for 30 min, stimulated with 100 nM AngII for 2 min (Gαq, Gαi3, and Rho sensors) or 5 min (PKC sensor). For the kinetics of GTPase and PI3K/Akt activation, cells were serum starved, pretreated with 21 (50 µM) or Wortmannin (200 nM) for 30 min, stimulated with ligand (100 nM AngII or 100 ng/ml EGF) and BRET signals were monitored at indicated times. […]
A general note: Bioluminescence resonance energy transfer reports proximity on the nanometre scale.

For test [2], the system named is K-Ras Y32A, Y40A, Y32A/Y40A. Described as above. The class given is cell-based, human. The note with it: 50 μM.
Description: as §1, §2

The test system of the next test is EGFR. In words: BRET concentration-response, EGFR of Fig1d source data. The class given is cell-based, human.

Where “and” joins values, the source holds several entries; their conditions need not be identical. Identical values can stand only once.

Regarding `CC(C)C(=O)N1CCN(c2ccc(NC(=O)c3cc4ccccc4o3)cc2Cl)CC1` [Compound 21], in the test on β-arrestin2, the “β-arrestin trafficking with B2R into endosomes (microscopy)” value is recorded as “prevented β-arrestins’ trafficking with receptors into endosomes”. In addition, the “AngII-promoted BRET” value in test [1] was 0.1037 and 0.088 and 0.0995 and 0.056. For the same compound, in test [1] (Bonferroni's multiple comparisons test), the “AngII-promoted BRET, Mean Diff. DMSO - Rasarfin” value came out at 0.006083. Also, the “AngII-mediated activation of K-Ras Y32A, Y40A, Y32A/Y40A mutants (Ras BRET sensor)” value in test [2] is listed as “only WT was significantly inhibited by Rasarfin”. Also, the “EGFR, ligand-promoted BRET (Mean)” value with EGFR (Log [Comp21] (M) -4.3) is recorded as 103.469 percent compared to DMSO; in the test with EGFR (Log [Comp21] (M) -4.6), 97.8054 percent compared to DMSO; in the test with EGFR (Log [Comp21] (M) -5), 87.6772 percent compared to DMSO; in the test with EGFR (Log [Comp21] (M) -5.3), 105.328 percent compared to DMSO; in the test with EGFR (Log [Comp 21] (M) -6), 96.2669 percent compared to DMSO; with EGFR (Log [Comp21] (M) -6.3), 100.826 percent compared to DMSO. Also, in the test with EGFR (Log [Comp 21] (M) -7), the “EGFR, ligand-promoted BRET (Mean)” value is 105.279 percent compared to DMSO.
